Patent publication US20020193320A1, “C-2 modified erythromycin derivatives” (priority 1999, published 2002)

Tests used:
Assay in all cases: In vitro antibacterial activity, agar dilution MIC
Type in all cases: cell-based
[1] = tested on: Nocardia Asteroides ATCC 99700; design: unit not given here; details: code VV, BHI agar, 35-37° C., 20 to 24 hours
Method: (§1) Representative compounds of the present invention were assayed in vitro for antibacterial activity as follows: Twelve petri dishes containing successive aqueous dilutions of the test compound mixed with 10 mL of sterilized Brain Heart Infusion (BHI) agar (Difco 0418-01-5) were prepared. Each plate was inoculated with 1:100 (or 1:10 for slow-growing strains, such as Micrococcus and Streptococcus) dilutions of up to 32 different microorganisms, using a Steers replicator block. The inoculated plates were incubated at 35-37° C. for 20 to 24 hours. In addition, a control plate, using BHI agar containing no test compound, was prepared and incubated at the beginning and end of each test.
(§2) An additional plate containing a compound having known susceptibility patterns for the organisms being tested and belonging to the same antibiotic class as the test compound was also prepared and incubated as a further control, as well as to provide test-to-test comparability.
(§3) After incubation, each plate was visually inspected. The minimum inhibitory concentration (MIC) was defined as the lowest concentration of drug yielding no growth, a slight haze, or sparsely isolated colonies on the inoculum spot as compared to the growth control.

[2] = tested on: Streptococcus pyogenes PIU 2548; design: unit not given here; details: code NN, BHI agar, 35-37° C., 20 to 24 hours
Method: as §1, §2, §3

[3] = tested on: Staphylococcus aureus ATCC 6538P; design: unit not given here; details: code AA, BHI agar, 35-37° C., 20 to 24 hours
Method: as §1, §2, §3

[4] = tested on: Staphylococcus aureus 1775; design: unit not given here; details: code GG, BHI agar, 35-37° C., 20 to 24 hours
Method: as §1, §2, §3

[5] = tested on: Staphylococcus aureus A-5177; design: unit not given here; details: code BB, BHI agar, 35-37° C., 20 to 24 hours
Method: as §1, §2, §3

[6] = tested on: Staphylococcus aureus NCTC 10649M; design: unit not given here; details: code EE, BHI agar, 35-37° C., 20 to 24 hours
Method: as §1, §2, §3

[7] = tested on: Streptococcus bovis A-5169; design: unit not given here; details: code JJ, BHI agar, 35-37° C., 20 to 24 hours
Method: as §1, §2, §3

[8] = tested on: Staphylococcus aureus CMX 642A; design: unit not given here; details: code DD, BHI agar, 35-37° C., 20 to 24 hours
Method: as §1, §2, §3

[9] = tested on: Staphylococcus aureus A-5278; design: unit not given here; details: code CC, BHI agar, 35-37° C., 20 to 24 hours
Method: as §1, §2, §3

[10] = tested on: Mycobacterium smegmatis ATCC 114; design: unit not given here; details: code UU, BHI agar, 35-37° C., 20 to 24 hours
Method: as §1, §2, §3

Escherichia coli SS = tested on: Escherichia coli SS; design: unit not given here; details: code RR, BHI agar, 35-37° C., 20 to 24 hours
Method: as §1, §2, §3

[11] = tested on: Streptococcus pyogenes 930; design: unit not given here; details: code MM, BHI agar, 35-37° C., 20 to 24 hours
Method: as §1, §2, §3

[12] = tested on: Enterococcus faecium ATCC X043; design: unit not given here; details: code II, BHI agar, 35-37° C., 20 to 24 hours
Method: as §1, §2, §3

[13] = tested on: Staphylococcus epidermidis 3519; design: unit not given here; details: code HH, BHI agar, 35-37° C., 20 to 24 hours
Method: as §1, §2, §3

Escherichia coli DC-2 = tested on: Escherichia coli DC-2; design: unit not given here; details: code SS, BHI agar, 35-37° C., 20 to 24 hours
Method: as §1, §2, §3

[14] = tested on: Micrococcus luteus ATCC 9341; design: unit not given here; details: code OO, BHI agar, 35-37° C., 20 to 24 hours
Method: as §1, §2, §3

Candida albicans CCH 442 = tested on: Candida albicans CCH 442; design: unit not given here; details: code TT, BHI agar, 35-37° C., 20 to 24 hours
Method: as §1, §2, §3

[15] = tested on: Staphylococcus aureus CMX 553; design: unit not given here; details: code FF, BHI agar, 35-37° C., 20 to 24 hours
Method: as §1, §2, §3

[16] = tested on: Streptococcus agalactiae CMX 508; design: unit not given here; details: code KK, BHI agar, 35-37° C., 20 to 24 hours
Method: as §1, §2, §3

Escherichia coli JUHL = tested on: Escherichia coli JUHL; design: unit not given here; details: code QQ, BHI agar, 35-37° C., 20 to 24 hours
Method: as §1, §2, §3

[17] = tested on: Haemophilis Influenzae DILL AMP R; details: code WW, 35-37° C., 20 to 24 hours
Method: as §1, §2, §3

[18] = tested on: Streptococcus Pneumonia ATCC 6303; details: code XX, 35-37° C., 20 to 24 hours
Method: as §1, §2, §3

[19] = tested on: Streptococcus pyogenes EES61; details: code LL, BHI agar, 35-37° C., 20 to 24 hours
Method: as §1, §2, §3

[20] = tested on: Streptococcus Pneumonia 5649; details: code ZZA (code list: ZA), 35-37° C., 20 to 24 hours
Method: as §1, §2, §3

[21] = tested on: Streptococcus Pneumonia GYR 1171; details: code YY, 35-37° C., 20 to 24 hours
Method: as §1, §2, §3

[22] = tested on: Micrococcus luteus ATCC 4698; details: code PP, BHI agar, 35-37° C., 20 to 24 hours
Method: as §1, §2, §3

[23] = tested on: Streptococcus Pneumonia 5979; details: code ZZ, 35-37° C., 20 to 24 hours
Method: as §1, §2, §3

| SMILES | Antibacterial Activity (MIC) [1] | Antibacterial Activity (MIC) [2] | Antibacterial Activity (MIC) [3] | Antibacterial Activity (MIC) [4] | Antibacterial Activity (MIC) [5] | Antibacterial Activity (MIC) [6] | Antibacterial Activity (MIC) [7] | Antibacterial Activity (MIC) [8] | Antibacterial Activity (MIC) [9] | Antibacterial Activity (MIC) [10] | Antibacterial Activity (MIC) (Escherichia coli SS) | Antibacterial Activity (MIC) [11] | Antibacterial Activity (MIC) [12] | Antibacterial Activity (MIC) [13] | Antibacterial Activity (MIC) (Escherichia coli DC-2) | Antibacterial Activity (MIC) [14] | Antibacterial Activity (MIC) (Candida albicans CCH 442) | Antibacterial Activity (MIC) [15] | Antibacterial Activity (MIC) [16] | Antibacterial Activity (MIC) (Escherichia coli JUHL) | other results |
| --- | --- | --- | --- | --- | --- | --- | --- | --- | --- | --- | --- | --- | --- | --- | --- | --- | --- | --- | --- | --- | --- |
| CC[C@H]1OC(=O)[C@H](C)[C@@H](O[C@H]2C[C@@](C)(OC)[C@@H](O)[C@H](C)O2)[C@H](C)[C@@H](O[C@@H]2O[C@H](C)C[C@H](N(C)C)[C@H]2O)[C@](C)(O)C[C@@H](C)C(=O)[C@H](C)[C@@H](O)[C@]1(C)O [Ery. A, Erythromycin A, reference compound] | 0.1 | 6.2 | 0.2 | >100 | 3.1 | 0.39 | 0.02 | 0.39 | >100 | 3.1 | 0.78 | >100 | 0.05 | 0.39 | >100 | 0.05 | >100 | 0.39 | 0.05 | >100 | Antibacterial Activity (MIC) [17]: 4; Antibacterial Activity (MIC) [18]: 0.06; Antibacterial Activity (MIC) [19]: 0.05; Antibacterial Activity (MIC) [20]: 16; Antibacterial Activity (MIC) [21]: 0.06; Antibacterial Activity (MIC) [22]: 0.2 |
| CCC1OC(=O)C(C)(CC=Cc2ccccc2)C(=O)C(C)C(OC2OC(C)CC(N(C)C)C2O)C(C)(OC)CC(C)C(=O)C(C)C2NC(=O)OC12C (stereo not shown) [Example 1, Compound of formula (II): R^a is CH3, R^b is H, Y and Z together are O, T is —NH—, R is —CH2CH═CH-(phenyl)] | 25 | 12.5 | 25 | 100 | 25 | 50 | 12.5 | 25 | 100 | 25 | 50 | 50 | 25 | 50 | >100 | 3.1 | 100 | 50 | 12.5 | >100 | Antibacterial Activity (MIC) [17]: >128; Antibacterial Activity (MIC) [18]: 8; Antibacterial Activity (MIC) [19]: 12.5; Antibacterial Activity (MIC) [23]: 64; Antibacterial Activity (MIC) [20]: 16; Antibacterial Activity (MIC) [21]: 4; Antibacterial Activity (MIC) [22]: 6.2 |
| CCC1OC(=O)C(C)(O)C(=O)C(C)C(OC2OC(C)CC(N(C)C)C2O)C(C)(OCC(O)CO)CC(C)C(=O)C(C)C2NC(=O)OC12C (stereo not shown) [Example 3, Compound of formula (II): R^a is —CH2CH(OH)CH2OH, R^b is H, Y and Z together are O, T is —NH—, R is —OH] | >100 | >100 | >100 | >100 | >100 | >100 | 50 | >100 | >100 | >100 | 100 | >100 | 100 | >100 | >100 | 50 | >100 | >100 | 50 | >100 | Antibacterial Activity (MIC) [17]: >128; Antibacterial Activity (MIC) [18]: 64; Antibacterial Activity (MIC) [19]: 100; Antibacterial Activity (MIC) [23]: >128; Antibacterial Activity (MIC) [20]: >128; Antibacterial Activity (MIC) [21]: 32; Antibacterial Activity (MIC) [22]: >100 |
| CCC1OC(=O)C(C)(O)C(=O)C(C)C(OC2OC(C)CC(N(C)C)C2O)C(C)(OC)CC(C)C(=O)C(C)C2N(CCCCc3ccccc3)C(=O)OC12C (stereo not shown) [Example 10, Compound of formula (II): R^a is CH3, R^b is H, Y and Z together are O, T is —N(W(R^g))-, W is —(CH2)p-, p is 4, R^g is phenyl R is —OH] | 1.56 | 1.56 | 1.56 | 25 | 1.56 | 1.56 | 0.2 | 1.56 | 25 | 1.56 | 3.1 | 6.2 | 0.39 | 1.56 | >100 | 0.39 | 25 | 1.56 | 0.2 | >100 | Antibacterial Activity (MIC) ([17]; unit assumed): 16 µg/mL; Antibacterial Activity (MIC) [19]: 0.2; Antibacterial Activity (MIC) [22]: 0.39 |
